Data: patent US11160871B2, “SSTR-targeted conjugates and particles and formulations thereof” (TARVEDA THERAPEUTICS, INC., priority 2015, dated 2021)
Read-outs that look alike come from different tables or passages of the source. Starred links: 1 amine or outer side, 2 acyl side, 3 side chain; linkers in the order of their positions; H or OH if unused. Positions of bridges follow the written chain, without caps; N, C: chain ends. Non-standard residues stand in square brackets, D forms with d. Residues, ends and D or L forms follow the SMILES beside them. *: point of attachment. NH(CH2)2SS(DM1) = COc1cc2cc(c1Cl)N(C)C(=O)C[C@H](OC(=O)[C@H](C)N(C)C(=O)CCSSCCN*)[C@]1(C)O[C@H]1[C@H](C)[C@@H]1C[C@@](O)(NC(=O)O1)[C@H](OC)/C=C/C=C(\C)C2; X1 = COc1cc2cc(c1Cl)N(C)C(=O)C[C@H](OC(=O)[C@H](C)N(C)C(=O)CCS*)[C@]1(C)O[C@H]1[C@H](C)[C@@H]1C[C@@](O)(NC(=O)O1)[C@H](OC)/C=C/C=C(\C)C2; N(3-sulfanylpropyl)dPhe = O=C([C@@H](Cc1ccccc1)N(CCCS[*:3])[*:1])[*:2]; Thr(ol) = C[C@@H](O)[C@H](N)CO

Columns and labels:
[1] = test system: NCI-H524 human small cell lung cancer cells; experiment: cells; assay type: cell-based
Experimental: Conjugates of the present invention were assessed in an in vitro assay evaluating inhibition of cell proliferation. NCI-H524 (ATCC) human small cell lung cancer cells were plated in 96 well, V-bottomed plates (Costar) at a concentration of 5,000 cells/well. 24 hours later, cells were treated with either conjugate for 2 hours and further incubated 70 hours, or for octreotide competition experiments, treated with 100 μM octreotide for 30 min, and then treated with conjugate for 2 hours, and further incubated for 70 hours. Conjugate starting dose was 20 μM and three fold serial dilutions were done for a total of ten points. After 2 hours of treatment, cells were spun down, the drug containing media was removed, and fresh complete medium was added and used to resuspend the cells, which were spun again. After removal of the wash media, the cells were resuspended in complete medium, and then transferred into white walled, flat bottomed 96 well plates. […] Proliferation was measured using CellTiter Glo reagent using the standard protocol (Promega) and a Glomax multi+ detection system (Promega). Percent proliferation inhibition was calculated using the following formula: % inhibition=(control−treatment)/control*100. Control is defined as vehicle alone. IC50 curves were generated using the nonlinear regression analysis (four parameter) with GraphPad Prism 6.

NCI-H69 SCLC tumors = experiment: H69 tumor DM-1 levels by LC/MS-MS; assay type: in vivo, mice; conditions: 1 mg/kg; 24 hour time point
Experimental: To examine the ability of conjugates of the present invention to accumulate in tumors, a murine cancer model was used. All mice were treated in accordance with the OLAW Public Health Service Policy on Human Care and Use of Laboratory Animals and the ILAR Guide for the Care and Use of Laboratory Animals. All in vivo studies were conducted following the protocols approved by the Blend Therapeutics Institutional Animal Care and Use Committee. Animals were inoculated with 2.5×10^6 NCI-H69 SCLC (small cell lung cancer) cells in 1:1 RPMI 1640 (Invitrogen, Carlsbad, Calif.)/Matrigel® (BD Biosciences, San Jose, Calif.) via subcutaneous injection to the right flank. Tumors were allowed to reach an approximate volume of ˜500 mm3. Animals were then randomized into treatment groups of 3 animals per time point and were dosed at 1 mg/kg (10% propylene glycol in water for injection for free conjugates, or 10% sucrose for nanoparticles), or 0.4 mg/kg for DM-1 (10% propylene glycol in water for injection). The 24 hour time point was used as a benchmark across conjugates.
Tumor DM-1 levels were determined by liquid chromatography mass spectrometry (LC/MS-MS). Four volumes of 5 mM 6-maleimidohexanoic acid to 1 part tumor v/w was added and homogenized for about 10-15 seconds with a handheld homogenizer. 10 μL of 500 mM Tris(2-carboxyethyl)phosphine was added to 100 uL of tumor homogenate, mixed well and incubated at room temperature for about 5-15 min. 200-300 uL of acetonitrile was used to precipitate proteins in tumor homogenate, samples were centrifuged for 5 min, and supernatant was injected onto LC/MS-MS system for DM-1 analysis.

[2] = 2 hours treatment, 70 hours further incubation, read-out: H524 IC50
[3] = read-out: H524 IC50+ 100 uM octreotide, 100 μM octreotide for 30 min before conjugate

COc1cc2cc(c1Cl)N(C)C(=O)C[C@H](OC(=O)[C@H](C)N(C)C(=O)CCSSCCC(=O)NCCOCCOCCOCCOCCOCCOCCOCCOCCC(=O)N[C@H](Cc1ccccc1)C(=O)N[C@H]1CSSC[C@@H](C(=O)N[C@H](CO)[C@@H](C)O)NC(=O)[C@H]([C@@H](C)O)NC(=O)[C@H](CCCCN)NC(=O)[C@@H](Cc3c[nH]c4ccccc34)NC(=O)[C@H](Cc3ccccc3)NC1=O)[C@]1(C)O[C@H]1[C@H](C)[C@@H]1C[C@@](O)(NC(=O)O1)[C@H](OC)/C=C/C=C(\C)C2 [Conjugate 6]
IC50 [1, 2]: 234 nM

COc1cc2cc(c1Cl)N(C)C(=O)C[C@H](OC(=O)[C@H](C)N(C)C(=O)CCSSC[C@H](N)C(=O)N[C@@H](CCCCN)C(=O)N[C@@H](CCCCN)C(=O)N[C@@H](CCCCN)C(=O)N[C@@H](CCCCN)C(=O)N[C@H](Cc1ccccc1)C(=O)N[C@H]1CSSC[C@@H](C(=O)N[C@H](CO)[C@@H](C)O)NC(=O)[C@H]([C@@H](C)O)NC(=O)[C@H](CCCCN)NC(=O)[C@@H](Cc3c[nH]c4ccccc34)NC(=O)[C@H](Cc3ccccc3)NC1=O)[C@]1(C)O[C@H]1[C@H](C)[C@@H]1C[C@@](O)(NC(=O)O1)[C@H](OC)/C=C/C=C(\C)C2 [Conjugate 7] (H-C(X1)KKKK[dF]CF[dW]KTC[Thr(ol)]; disulfide 7-12)
IC50 [1, 2]: 955 nM

COc1cc2cc(c1Cl)N(C)C(=O)C[C@H](OC(=O)[C@H](C)N(C)C(=O)CCSSCCC(=O)NCCCC[C@H]1C(=O)N[C@@H](Cc3ccc(O)cc3)C(=O)N[C@H](Cc3c[nH]c4ccccc34)C(=O)N[C@@H](CCCCN)C(=O)N[C@@H]([C@@H](C)O)C(=O)N[C@@H](Cc3ccccc3)C(=O)N1C)[C@]1(C)O[C@H]1[C@H](C)[C@@H]1C[C@@](O)(NC(=O)O1)[C@H](OC)/C=C/C=C(\C)C2 [Conjugate 10]
H69 tumor DM-1 levels (NCI-H69 SCLC tumors): 72.1 nM

COc1cc2cc(c1Cl)N(C)C(=O)C[C@H](OC(=O)[C@H](C)N(C)C(=O)CCSSCCNC(=O)CC[C@H]1C(=O)N[C@@H](Cc3ccc(O)cc3)C(=O)N[C@H](Cc3c[nH]c4ccccc34)C(=O)N[C@@H](CCCCN)C(=O)N[C@@H]([C@@H](C)O)C(=O)N[C@@H](Cc3ccccc3)C(=O)N1C)[C@]1(C)O[C@H]1[C@H](C)[C@@H]1C[C@@](O)(NC(=O)O1)[C@H](OC)/C=C/C=C(\C)C2 [Conjugate 14]
H69 tumor DM-1 levels (NCI-H69 SCLC tumors): 70.1 nM

COc1cc2cc(c1Cl)N(C)C(=O)C[C@H](OC(=O)[C@H](C)N(C)C(=O)CCSSC[C@H](NC(=O)CC[C@H]1C(=O)N[C@@H](Cc3ccc(O)cc3)C(=O)N[C@H](Cc3c[nH]c4ccccc34)C(=O)N[C@@H](CCCCN)C(=O)N[C@@H]([C@@H](C)O)C(=O)N[C@@H](Cc3ccccc3)C(=O)N1C)C(=O)NC(C)(C)CC(C)(C)C)[C@]1(C)O[C@H]1[C@H](C)[C@@H]1C[C@@](O)(NC(=O)O1)[C@H](OC)/C=C/C=C(\C)C2 [Conjugate 16]
H69 tumor DM-1 levels (NCI-H69 SCLC tumors): 96.4 nM

CCCCN(CCSSCCC(=O)N(C)[C@@H](C)C(=O)O[C@H]1CC(=O)N(C)c2cc(cc(OC)c2Cl)C/C(C)=C/C=C/[C@@H](OC)[C@@]2(O)C[C@H](OC(=O)N2)[C@@H](C)[C@@H]2O[C@@]12C)C(=O)CC[C@H]1C(=O)N[C@@H](Cc2ccc(O)cc2)C(=O)N[C@H](Cc2c[nH]c3ccccc23)C(=O)N[C@@H](CCCCN)C(=O)N[C@@H]([C@@H](C)O)C(=O)N[C@@H](Cc2ccccc2)C(=O)N1C [Conjugate 22]
H69 tumor DM-1 levels (NCI-H69 SCLC tumors): 145 nM

COc1cc2cc(c1Cl)N(C)C(=O)C[C@H](OC(=O)C(C)N(C)C(=O)CCSSCC(=O)NCCNC(=O)CC[C@H]1C(=O)N[C@@H](Cc3ccc(O)cc3)C(=O)N[C@H](Cc3c[nH]c4ccccc34)C(=O)N[C@@H](CCCCN)C(=O)N[C@@H]([C@@H](C)O)C(=O)N[C@@H](Cc3ccccc3)C(=O)N1C)[C@]1(C)O[C@H]1[C@H](C)[C@@H]1C[C@@](O)(NC(=O)O1)[C@H](OC)/C=C/C=C(\C)C2 (stereo partly shown) [Conjugate 30]
IC50 [1, 2]: 470 nM
IC50 [1, 3]: 2020 nM

COc1cc2cc(c1Cl)N(C)C(=O)C[C@H](OC(=O)[C@H](C)N(C)C(=O)CCSSCCNC(=O)[C@@H](NC(=O)[C@@H]1CSSC[C@H](NC(=O)[C@H](N)Cc3ccccc3)C(=O)N[C@@H](Cc3ccc(O)cc3)C(=O)N[C@H](Cc3c[nH]c4ccccc34)C(=O)N[C@@H](CCCCN)C(=O)N[C@@H]([C@@H](C)O)C(=O)N1)[C@@H](C)O)[C@]1(C)O[C@H]1[C@H](C)[C@@H]1C[C@@](O)(NC(=O)O1)[C@H](OC)/C=C/C=C(\C)C2 [Conjugate 35]
H69 tumor DM-1 levels (NCI-H69 SCLC tumors): 23.2 nM

COc1cc2cc(c1Cl)N(C)C(=O)C[C@H](OC(=O)[C@H](C)N(C)C(=O)CCSSCCC(=O)NCCOCCOCCOCCNC(=O)[C@@H](NC(=O)[C@@H]1CSSC[C@H](NC(=O)[C@H](N)Cc3ccccc3)C(=O)N[C@@H](Cc3ccc(O)cc3)C(=O)N[C@H](Cc3c[nH]c4ccccc34)C(=O)N[C@@H](CCCCN)C(=O)N[C@@H]([C@@H](C)O)C(=O)N1)[C@@H](C)O)[C@]1(C)O[C@H]1[C@H](C)[C@@H]1C[C@@](O)(NC(=O)O1)[C@H](OC)/C=C/C=C(\C)C2 [Conjugate 47]
IC50 [1, 2]: 2130 nM
IC50 [1, 3]: 1270 nM

COc1cc2cc(c1Cl)N(C)C(=O)C[C@H](OC(=O)[C@H](C)N(C)C(=O)CCSSCCNC(=O)[C@H](Cc1c[nH]c3ccccc13)NC(=O)[C@@H]1CSSC[C@H](NC(=O)[C@H](N)Cc3ccccc3)C(=O)N[C@@H](Cc3ccc(O)cc3)C(=O)N[C@H](Cc3c[nH]c4ccccc34)C(=O)N[C@@H](CCCCN)C(=O)N[C@@H]([C@@H](C)O)C(=O)N1)[C@]1(C)O[C@H]1[C@H](C)[C@@H]1C[C@@](O)(NC(=O)O1)[C@H](OC)/C=C/C=C(\C)C2 [Conjugate 49] (H-[dF]CY[dW]KTCW-{NH(CH2)2SS(DM1)}; disulfide 2-7)
IC50 [1, 2]: 69 nM
IC50 [1, 3]: 243 nM

CCCCCCCCN[C@H](Cc1ccccc1)C(=O)N[C@H]1CSSC[C@@H](C(=O)N[C@H](C(=O)NCCSSCCC(=O)N(C)[C@@H](C)C(=O)O[C@H]2CC(=O)N(C)c3cc(cc(OC)c3Cl)C/C(C)=C/C=C/[C@@H](OC)[C@@]3(O)C[C@H](OC(=O)N3)[C@@H](C)[C@@H]3O[C@@]23C)[C@@H](C)O)NC(=O)[C@H]([C@@H](C)O)NC(=O)[C@H](CCCCN)NC(=O)[C@@H](Cc2c[nH]c3ccccc23)NC(=O)[C@H](Cc2ccc(O)cc2)NC1=O [Conjugate 55]
H69 tumor DM-1 levels (NCI-H69 SCLC tumors): 95.3 nM

COc1cc2cc(c1Cl)N(C)C(=O)C[C@H](OC(=O)[C@H](C)N(C)C(=O)CCSSCCCN[C@H](Cc1ccccc1)C(=O)N[C@H]1CSSC[C@@H](C(=O)N[C@H](CO)[C@@H](C)O)NC(=O)[C@H]([C@@H](C)O)NC(=O)[C@H](CCCCN)NC(=O)[C@@H](Cc3c[nH]c4ccccc34)NC(=O)[C@H](Cc3ccccc3)NC1=O)[C@]1(C)O[C@H]1[C@H](C)[C@@H]1C[C@@](O)(NC(=O)O1)[C@H](OC)/C=C/C=C(\C)C2 [Conjugate 76]
H69 tumor DM-1 levels (NCI-H69 SCLC tumors): 62.2 nM

COc1cc2cc(c1Cl)N(C)C(=O)C[C@H](OC(=O)[C@H](C)N(C)C(=O)CCSSCCCN[C@H](Cc1ccccc1)C(=O)N[C@H]1CSSC[C@@H](C(=O)N[C@@H](Cc3c[nH]c4ccccc34)C(N)=O)NC(=O)[C@H](C(C)C)NC(=O)[C@H](CCCCN)NC(=O)[C@@H](Cc3c[nH]c4ccccc34)NC(=O)[C@H](Cc3ccc(O)cc3)NC1=O)[C@]1(C)O[C@H]1[C@H](C)[C@@H]1C[C@@](O)(NC(=O)O1)[C@H](OC)/C=C/C=C(\C)C2 [Conjugate 78] (H-[N(3-sulfanylpropyl)dPhe](X1)CY[dW]KVCW-NH2; disulfide 2-7)
H69 tumor DM-1 levels (NCI-H69 SCLC tumors): 36.2 nM

COc1cc2cc(c1Cl)N(C)C(=O)C[C@H](OC(=O)[C@H](C)N(C)C(=O)CCSSCCCN[C@H](Cc1ccccc1)C(=O)N[C@H]1CSSC[C@@H](C(=O)N[C@H](C(=O)O)[C@@H](C)O)NC(=O)[C@H]([C@@H](C)O)NC(=O)[C@H](CCCCN)NC(=O)[C@@H](Cc3c[nH]c4ccccc34)NC(=O)[C@H](Cc3ccc(O)cc3)NC1=O)[C@]1(C)O[C@H]1[C@H](C)[C@@H]1C[C@@](O)(NC(=O)O1)[C@H](OC)/C=C/C=C(\C)C2 [Conjugate 80]
H69 tumor DM-1 levels (NCI-H69 SCLC tumors): 91.2 nM

COc1cc2cc(c1Cl)N(C)C(=O)C[C@H](OC(=O)[C@H](C)N(C)C(=O)CCSSCCNC(=O)N[C@H](Cc1ccccc1)C(=O)N[C@H]1CSSC[C@@H](C(=O)N[C@H](CO)[C@@H](C)O)NC(=O)[C@H]([C@@H](C)O)NC(=O)[C@H](CCCCN)NC(=O)[C@@H](Cc3c[nH]c4ccccc34)NC(=O)[C@H](Cc3ccccc3)NC1=O)[C@]1(C)O[C@H]1[C@H](C)[C@@H]1C[C@@](O)(NC(=O)O1)[C@H](OC)/C=C/C=C(\C)C2 [Conjugate 84]
IC50 [1, 2]: 76 nM
IC50 [1, 3]: 312 nM
